Test results from ChEMBL document CHEMBL6109102, “Conjugation with the XJB peptide enhanced neuroprotective effect of honokiol via SIRT3 modulation” (Eur J Med Chem, 2025).
Calls of active or inactive are those of the source. The calls are words filed in the database; no cut-off is given here.

Assays:
SH-SY5Y = experiment: Cytotoxicity against human SH-SY5Y cells assessed as inhibition of cell viability at 100 uM incubated for 24 hrs by MTT assay; assay type: functional, cell-based
PC-12 [1] = experiment: Cytoprotective activity against H2O2-induced cell injury in rat PC12 cells assessed as cell viability at 10 uM incubated for 24 hrs by MTT assay; assay type: functional, cell-based
PC-12 [2] = experiment: Cytoprotective activity against H2O2-induced cell injury in rat PC12 cells assessed as cell viability at 20 uM incubated for 24 hrs by MTT assay; assay type: functional, cell-based
[3] = Drug uptake in mitochondria of rat PC12 cells at 8 uM incubated for 8.5 hrs by HPLC analysis; assay type: ADME; details: pc12, 8.5 h
PC-12 [4] = experiment: Inhibition of apoptosis in H2O2-induced rat PC12 cells assessed as viable cells at 1.25 uM incubated with compound for 24 hrs followed by H2O2 addition and measured after 24 hrs by Annexin V-FITC/PI staining based flow cytometry analysis (reference value: 91.4%); assay type: functional; details: read-out: Activity
PC-12 [5] = experiment: Inhibition of apoptosis in H2O2-induced rat PC12 cells assessed as early apoptotic cells at 1.25 uM incubated with compound for 24 hrs followed by H2O2 addition and measured after 24 hrs by Annexin V-FITC/PI staining based flow cytometry analysis (reference value: 1.09%); assay type: functional; design: scale not given: the % may be the effect or the level left
PC-12 [6] = experiment: Inhibition of apoptosis in H2O2-induced rat PC12 cells assessed as late apoptotic cells at 1.25 uM incubated with compound for 24 hrs followed by H2O2 addition and measured after 24 hrs by Annexin V-FITC/PI staining based flow cytometry analysis (reference value: 2.64%); assay type: functional; design: scale not given: the % may be the effect or the level left
PC-12 [7] = experiment: Inhibition of apoptosis in H2O2-induced rat PC12 cells assessed as necrotic cells at 1.25 uM incubated with compound for 24 hrs followed by H2O2 addition and measured after 24 hrs by Annexin V-FITC/PI staining based flow cytometry analysis (reference value: 4.05%); assay type: functional; design: scale not given: the % may be the effect or the level left
PC-12 [8] = experiment: Inhibition of apoptosis in H2O2-induced rat PC12 cells assessed as viable cells at 2.5 uM incubated with compound for 24 hrs followed by H2O2 addition and measured after 24 hrs by Annexin V-FITC/PI staining based flow cytometry analysis (reference value: 91.4%); assay type: functional; details: read-out: Activity
PC-12 [9] = experiment: Inhibition of apoptosis in H2O2-induced rat PC12 cells assessed as early apoptotic cells at 2.5 uM incubated with compound for 24 hrs followed by H2O2 addition and measured after 24 hrs by Annexin V-FITC/PI staining based flow cytometry analysis (reference value: 1.09%); assay type: functional; design: scale not given: the % may be the effect or the level left
PC-12 [10] = experiment: Inhibition of apoptosis in H2O2-induced rat PC12 cells assessed as late apoptotic cells at 2.5 uM incubated with compound for 24 hrs followed by H2O2 addition and measured after 24 hrs by Annexin V-FITC/PI staining based flow cytometry analysis (reference value: 2.64%); assay type: functional; design: scale not given: the % may be the effect or the level left
PC-12 [11] = experiment: Inhibition of apoptosis in H2O2-induced rat PC12 cells assessed as necrotic cells at 2.5 uM incubated with compound for 24 hrs followed by H2O2 addition and measured after 24 hrs by Annexin V-FITC/PI staining based flow cytometry analysis (reference value: 4.05%); assay type: functional; design: scale not given: the % may be the effect or the level left
PC-12 [12] = experiment: Inhibition of apoptosis in H2O2-induced rat PC12 cells assessed as viable cells at 5 uM incubated with compound for 24 hrs followed by H2O2 addition and measured after 24 hrs by Annexin V-FITC/PI staining based flow cytometry analysis (reference value: 91.4%); assay type: functional; details: read-out: Activity
PC-12 [13] = experiment: Inhibition of apoptosis in H2O2-induced rat PC12 cells assessed as early apoptotic cells at 5 uM incubated with compound for 24 hrs followed by H2O2 addition and measured after 24 hrs by Annexin V-FITC/PI staining based flow cytometry analysis (reference value: 1.09%); assay type: functional; design: scale not given: the % may be the effect or the level left
PC-12 [14] = experiment: Inhibition of apoptosis in H2O2-induced rat PC12 cells assessed as late apoptotic cells at 5 uM incubated with compound for 24 hrs followed by H2O2 addition and measured after 24 hrs by Annexin V-FITC/PI staining based flow cytometry analysis (reference value: 2.64%); assay type: functional; design: scale not given: the % may be the effect or the level left
PC-12 [15] = experiment: Inhibition of apoptosis in H2O2-induced rat PC12 cells assessed as necrotic cells at 5 uM incubated with compound for 24 hrs followed by H2O2 addition and measured after 24 hrs by Annexin V-FITC/PI staining based flow cytometry analysis (reference value: 4.05%); assay type: functional; design: scale not given: the % may be the effect or the level left
PC-12 [16] = experiment: Anti-apoptotic activity in H2O2-induced rat PC12 cells assessed as increase in PARP protein expression at 1.25 to 5 uM by Western blot analysis; assay type: functional, cell-based; details: dose 1.25-5 µM
PC-12 [17] = experiment: (§1) Neuroprotective activity in H2O2-induced rat PC12 cells assessed as reversal of mitochondrial membrane potential reduction by measuring red fluorescence at 1.25 uM incubated with compound for 24 hrs followed by H2O2 addition and measured after 24 hrs by JC-1 based fluorescence microscopic analysis (reference value: 21.62 a.u.); assay type: functional
PC-12 [18] = experiment: as §1, with “2.5” for “1.25”; assay type: functional
PC-12 [19] = experiment: as §1, with “5” for “1.25”; assay type: functional
PC-12 [20] = experiment: as §1, with “measuring green” for “measuring red”, “at 1.5” for “at 1.25”, “value: 4.90” for “value: 21.62”; assay type: functional
PC-12 [21] = experiment: as §1, with “measuring green” for “measuring red”, “at 2.5” for “at 1.25”, “value: 4.90” for “value: 21.62”; assay type: functional
PC-12 [22] = experiment: as §1, with “measuring green” for “measuring red”, “at 5” for “at 1.25”, “value: 4.90” for “value: 21.62”; assay type: functional
PC-12 [23] = experiment: (§2) Neuroprotective activity in H2O2-induced rat PC12 cells assessed as reversal of mitochondrial membrane potential reduction by measuring red fluorescence fold change at 1.5 uM incubated with compound for 24 hrs followed by H2O2 addition and measured after 24 hrs by JC-1 based fluorescence microscopic analysis (reference value: 1.00); assay type: functional
PC-12 [24] = experiment: as §2, with “2.5” for “1.5”; assay type: functional
PC-12 [25] = experiment: as §2, with “5” for “1.5”; assay type: functional
PC-12 [26] = experiment: as §2, with “measuring green” for “measuring red”; assay type: functional
PC-12 [27] = experiment: as §2, with “measuring green” for “measuring red”, “at 2.5” for “at 1.5”; assay type: functional
PC-12 [28] = experiment: as §2, with “measuring green” for “measuring red”, “at 5” for “at 1.5”; assay type: functional
PC-12 [29] = experiment: Induction of autophagy in H2O2-induced rat PC12 cells assessed as downregulation of P62 expression by Western blot analysis; assay type: functional, cell-based; details: dose 1.25-5 µM
PC-12 [30] = experiment: Induction of autophagy in H2O2-induced rat PC12 cells assessed as upregulation of LC3-II/I ratio by Western blot analysis; assay type: functional, cell-based; details: dose 1.25-5 µM
Danio rerio = experiment: Anti-alzheimer activity in scopolamine induced zebrafish alzheimer disease model assessed as increase in total swimming distance at 1.25 to 5 uM administered for 6 days post fertilization; assay type: functional, organism-based; details: dose 1.25-5 µM, time 6.0 day
[31] = Drug uptake in cytoplasm of rat PC12 cells at 8 uM incubated for 8.5 hrs by HPLC analysis; assay type: ADME, subcellular; details: pc12, 8.5 h
[32] = Drug uptake in rat PC12 cells at 8 uM incubated for 8.5 hrs by HPLC analysis; assay type: ADME, cell-based; details: pc-12, 8.5 h
PC-12 [33] = experiment: Cytotoxicity against rat PC12 cells assessed as inhibition of cell viability at 30 uM incubated for 24 hrs by MTT assay; assay type: functional, cell-based
PC-12 [34] = experiment: Neuroprotective activity against H2O2-induced cell injury in rat PC12 cells assessed as cell viability at 2 uM incubated for 24 hrs by MTT assay; assay type: functional, cell-based
PC-12 [35] = experiment: Induction of autophagy in rat PC12 cells assessed as reduction of LC3-II/I ratio in presence of 3-TYP by Western blot analysis; assay type: functional, cell-based
PC-12 [36] = experiment: Neuroprotective activity in H2O2-induced rat PC12 cells assessed as reduction in cell viability in presence of 3-TYP at 10 uM; assay type: functional, cell-based
PC-12 [37] = experiment: Neuroprotective activity in H2O2-induced rat PC12 cells assessed as upregulation of SIRT-3 level at 1.25 to 5 uM by Western blot analysis; assay type: functional, cell-based; details: dose 1.25-5 µM
PC-12 [38] = experiment: Neuroprotective activity in H2O2-induced rat PC12 cells assessed as upregulation of Mfn-1 expression at 1.25 to 5 uM by Western blot analysis; assay type: functional, cell-based; details: dose 1.25-5 µM
PC-12 [39] = experiment: Neuroprotective activity in H2O2-induced rat PC12 cells assessed as upregulation of p-AMPK/AMPK ratio at 1.25 to 5 uM by Western blot analysis; assay type: functional, cell-based; details: dose 1.25-5 µM
PC-12 [40] = experiment: Neuroprotective activity in H2O2-induced rat PC12 cells assessed as suppression of Mfn-1 expression in presence of 3-TYP by Western blot analysis; assay type: functional, cell-based
PC-12 [41] = experiment: Neuroprotective activity against H2O2-induced cell injury in rat PC12 cells assessed as cell viability incubated for 24 hrs by MTT assay; assay type: functional, cell-based; details: dose 0.37-30 µM

| Drug uptake [3] | Drug uptake [31] | Drug uptake [32] | SMILES | Activity (SH-SY5Y) | Activity (PC-12 [17]) | Activity (PC-12 [18]) | Activity (PC-12 [19]) | Activity (PC-12 [20]) | Activity (PC-12 [21]) | Activity (PC-12 [22]) | fold change (FC) (PC-12 [23]) | fold change (FC) (PC-12 [24]) | fold change (FC) (PC-12 [25]) | fold change (FC) (PC-12 [26]) | fold change (FC) (PC-12 [27]) | fold change (FC) (PC-12 [28]) | Activity (PC-12 [29]) | Activity (PC-12 [30]) | also measured |
| --- | --- | --- | --- | --- | --- | --- | --- | --- | --- | --- | --- | --- | --- | --- | --- | --- | --- | --- | --- |
| Active | Active | Active | C=CCc1ccc(O)c(-c2ccc(O)c(CC=C)c2)c1 [HONOKIOL] | Active | 2.16 a.u. | 6.59 a.u. | 13.31 a.u. | 6.32 a.u. | 4.08 a.u. | 3.97 a.u. | 0.09 | 0.32 | 0.63 | 2.55 | 1.02 | 1.26 | inactive | inactive | Activity (PC-12 [1]): Active; Activity (PC-12 [2]): inactive; viability at 1.25 µM (PC-12 [4]): 76.9%; Activity (PC-12 [5]): 16.6%; Activity (PC-12 [6]): 4.95%; Activity (PC-12 [7]): 1.57%; viability at 2.5 µM (PC-12 [8]): 79.6%; Activity (PC-12 [9]): 15.6%; Activity (PC-12 [10]): 3.27%; Activity (PC-12 [11]): 1.43%; viability at 5 µM (PC-12 [12]): 77.1%; Activity (PC-12 [13]): 16.5%; Activity (PC-12 [14]): 4.84%; Activity (PC-12 [15]): 1.52%; Activity (PC-12 [16]): Active; Activity (Danio rerio): Active |
| – | – | – | C=CCc1ccc(OC)c(-c2ccc(OCCCNC(=O)[C@H](CCCNC(=O)OCc3ccccc3)NC(=O)[C@@H](NC(=O)[C@@H]3CCCN3C(=O)[C@@H](Cc3ccccc3)NC(=O)[C@H](CC(C)C)NC(=O)OC(C)(C)C)C(C)C)c(CC=C)c2)c1 | – | – | – | – | – | – | – | – | – | – | – | – | – | – | – | Activity (PC-12 [33]): inactive |
| Active | Active | Active | C=CCc1ccc(O)c(-c2ccc(OCCCNC(=O)[C@H](CCCNC(=O)OCc3ccccc3)NC(=O)[C@@H](NC(=O)[C@@H]3CCCN3C(=O)[C@@H](Cc3ccccc3)NC(=O)[C@H](CC(C)C)NC(=O)OC(C)(C)C)C(C)C)c(CC=C)c2)c1 | inactive | 3.18 a.u. | 11.01 a.u. | 15.68 a.u. | 3.7 a.u. | 7.17 a.u. | 4.76 a.u. | 0.14 | 0.52 | 0.74 | 1.4 | 2.91 | 1.44 | Dose-dependent-effect | Dose-dependent-effect | Activity (PC-12 [34]): Active; Activity (PC-12 [35]): Active; Activity (PC-12 [36]): Active; Activity (PC-12 [37]): Active; Activity (PC-12 [38]): Active; Activity (PC-12 [39]): Active; Activity (PC-12 [40]): Active; Activity (PC-12 [41]): Dose-dependent-effect |
